# From patent publication US20080038382A1 (priority 2004, published 2008)
# Like-named read-outs stand apart in the source and are kept apart here.
# Columns and labels:
# [1] = test system: SARS-CoV; conditions: background, cited sources; cited from earlier work
# [2] = test system: SARS CoV; format: cell-based; conditions: for mean number of plaques: 3 days incubation at 37° C., vero C1008 cells; for plaques as % of virus control: virus control = 100%
# [3] = test system: RSV S2; format: cell-based; conditions: 100 μg/ml
structure (smiles),measurement,setting,value
Cc1cccc(C)c1OCC(=O)N[C@@H](Cc1ccccc1)[C@@H](O)C[C@H](Cc1ccccc1)NC(=O)[C@H](C(C)C)N1CCCNC1=O [Lopinavir],activity against SARS virus (reported in literature/news),[1],partially active
NC(=O)c1ncn([C@@H]2O[C@H](CO)[C@@H](O)[C@H]2O)n1 [Ribavirin],mean number of plaques,[2]; Ribavirin 10 μg/ml,mean 114.75
same,plaques as % of virus control,[2]; Ribavirin 10 μg/ml,(97.5%)
same,mean number of plaques,[2]; Ribavirin 100 μg/ml,mean 87.25
same,plaques as % of virus control,[2]; Ribavirin 100 μg/ml,(74.1%)
same,plaque size compared with controls,"[2]; higher concentrations (Ribavirin 100 μg/ml, PYN5C 200 μg/ml)",smaller than for the controls
same,protection of the cells against RSV,[3],did not protect
same,activity against SARS virus (reported in literature/news),[1],appear to be efficacious
CCOC(=O)/C=C/[C@H](C[C@@H]1CCNC1=O)NC(=O)[C@@H](CC(=O)[C@@H](NC(=O)c1cc(C)on1)C(C)C)Cc1ccc(F)cc1 [AG7088],activity against SARS virus (reported in literature/news),[1],failed to inhibit virus
CC1(C)[C@@H](O[C@H]2O[C@H](C(=O)O)[C@@H](O)[C@H](O)[C@H]2O[C@@H]2O[C@H](C(=O)O)[C@@H](O)[C@H](O)[C@H]2O)CC[C@]2(C)[C@H]3C(=O)C=C4[C@@H]5C[C@@](C)(C(=O)O)CC[C@]5(C)CC[C@@]4(C)[C@]3(C)CC[C@@H]12 [glycyrrhizin],activity against SARS virus (reported in literature/news),[1],appear to be efficacious
Cc1c(O)cccc1C(=O)N[C@@H](CSc1ccccc1)[C@H](O)CN1C[C@H]2CCCC[C@H]2C[C@H]1C(=O)NC(C)(C)C [Nelfinavir],activity against SARS virus (reported in literature/news),[1],partially active
